According to paper PMC9095466 (Nature, 2022):
Where “and” joins values, the source holds several entries; their conditions need not be identical. Identical values can stand only once. Like-named read-outs stand apart in the source and are kept apart here.

Columns and labels:
[1] = target: T1, Recombinant human hepsin (Homo sapiens, UniProt P05981); experiment: Protease selectivity, Ki on recombinant protease; type: biochemical; conditions: single experiments N1-N3; Figure 1D; read-out: Individual Ki, Hepsin
T1 construct: made in house

[2] = target: T2, Recombinant human matriptase (Homo sapiens, UniProt Q9Y5Y6); experiment: Protease selectivity, Ki on recombinant protease; type: biochemical; conditions: single experiments N1-N3; Figure 1D; read-out: Individual Ki, Matriptase
T2 construct: made in house
T2 sequence (Q9Y5Y6 1-855): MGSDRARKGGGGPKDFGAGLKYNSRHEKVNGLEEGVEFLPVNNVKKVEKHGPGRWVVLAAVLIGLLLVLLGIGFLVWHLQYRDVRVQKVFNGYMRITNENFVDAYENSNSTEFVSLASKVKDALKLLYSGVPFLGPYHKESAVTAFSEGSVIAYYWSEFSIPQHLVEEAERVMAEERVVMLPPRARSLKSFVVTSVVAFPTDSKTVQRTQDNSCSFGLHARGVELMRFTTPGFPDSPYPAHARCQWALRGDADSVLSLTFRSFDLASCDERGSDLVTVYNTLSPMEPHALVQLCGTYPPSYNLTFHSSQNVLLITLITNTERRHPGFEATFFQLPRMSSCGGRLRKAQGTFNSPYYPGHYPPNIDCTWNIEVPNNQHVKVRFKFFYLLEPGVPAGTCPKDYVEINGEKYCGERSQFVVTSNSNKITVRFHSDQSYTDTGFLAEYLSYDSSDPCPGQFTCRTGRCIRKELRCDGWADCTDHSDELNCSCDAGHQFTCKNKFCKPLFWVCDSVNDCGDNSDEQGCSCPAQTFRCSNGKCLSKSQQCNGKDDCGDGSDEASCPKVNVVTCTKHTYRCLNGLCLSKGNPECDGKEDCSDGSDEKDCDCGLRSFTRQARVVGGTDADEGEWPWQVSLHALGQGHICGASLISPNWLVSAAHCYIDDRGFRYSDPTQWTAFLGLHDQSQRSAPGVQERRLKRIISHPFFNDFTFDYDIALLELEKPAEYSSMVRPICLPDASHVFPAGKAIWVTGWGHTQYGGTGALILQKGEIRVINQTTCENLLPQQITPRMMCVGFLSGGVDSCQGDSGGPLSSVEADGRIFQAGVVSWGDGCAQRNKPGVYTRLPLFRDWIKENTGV

[3] = target: T3, Recombinant human furin (Homo sapiens, UniProt P09958); experiment: Protease selectivity, Ki on recombinant protease; type: biochemical
T3 construct: purchased Bio-Techne

[4] = target: T4, human cathepsin L (Homo sapiens, UniProt P07711); experiment: Protease selectivity, Ki on protease; type: biochemical
T4 construct: purchased Bio-Techne

[5] = target: T5, Recombinant human DESC1 (Homo sapiens, UniProt Q9UL52); experiment: Protease selectivity, Ki on recombinant protease; type: biochemical
T5 construct: made in house
T5 sequence (Q9UL52 1-423): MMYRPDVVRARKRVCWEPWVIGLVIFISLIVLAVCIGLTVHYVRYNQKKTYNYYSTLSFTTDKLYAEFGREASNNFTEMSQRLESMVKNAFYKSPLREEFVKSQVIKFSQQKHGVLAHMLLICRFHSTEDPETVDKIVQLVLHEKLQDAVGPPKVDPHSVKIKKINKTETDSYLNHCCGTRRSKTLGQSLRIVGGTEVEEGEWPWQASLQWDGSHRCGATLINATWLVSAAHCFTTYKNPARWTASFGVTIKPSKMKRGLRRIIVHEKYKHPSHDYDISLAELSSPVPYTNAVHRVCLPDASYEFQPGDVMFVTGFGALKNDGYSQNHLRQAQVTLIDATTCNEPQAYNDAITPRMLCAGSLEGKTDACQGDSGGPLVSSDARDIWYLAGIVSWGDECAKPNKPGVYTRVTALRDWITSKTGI

[6] = target: T6, human thrombin (Homo sapiens, UniProt P00734); experiment: Protease selectivity, Ki on protease; type: biochemical
T6 construct: purchased MilliporeSigma

[7] = Cytotoxicity CC50 in Calu-3 lung epithelial cells; type: cell-based, human; conditions: human; for viability at 24 h, 1000 µM: Log [inhibitor] -3.00; for viability at 24 h, 300 µM: Log [inhibitor] -3.52; for viability at 24 h, 100 µM: Log [inhibitor] -4.00; for viability at 24 h, 30 µM: Log [inhibitor] -4.52; for viability at 24 h, 10 µM: Log [inhibitor] -5.00; for viability at 24 h, 3 µM: Log [inhibitor] -5.52; for viability at 24 h, 0.3 µM: Log [inhibitor] -6.52; for viability at 24 h, 0.03 µM: Log [inhibitor] -7.52; for viability at 24 h, 0.003 µM: Log [inhibitor] -8.52
[8] = tested on: Calu-3 cells; experiment: Cytotoxicity CC50 in Calu-3 lung epithelial cells; type: cell-based, human; conditions: single replicates
[9] = tested on: SARS-CoV-2 lineage B strain (VIDO); experiment: microbe, parasite or virus in culture; type: cell-based
[10] = target: human TMPRSS2 (Homo sapiens, UniProt O15393); experiment: cell-based
[11] = single experiments N1-N4, Figure 1D, read-out: Individual Ki, Cathepsin L
[12] = single experiments N1-N3, Figure 1D, read-out: Individual Ki, Desc1
[13] = Calu-3 cells, read-out: % of Viability, Average (n=2)
[14] = Calu-3 cells, single replicates, read-out: % of Viability

T4 sequence (P07711 114-333): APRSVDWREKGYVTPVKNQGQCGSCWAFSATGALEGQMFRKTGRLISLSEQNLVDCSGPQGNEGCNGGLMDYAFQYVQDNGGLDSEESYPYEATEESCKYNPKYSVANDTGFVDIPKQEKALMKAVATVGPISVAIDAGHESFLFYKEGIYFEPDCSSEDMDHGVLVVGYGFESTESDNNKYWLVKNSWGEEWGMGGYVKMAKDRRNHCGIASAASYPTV
T1 sequence (P05981 whole entry): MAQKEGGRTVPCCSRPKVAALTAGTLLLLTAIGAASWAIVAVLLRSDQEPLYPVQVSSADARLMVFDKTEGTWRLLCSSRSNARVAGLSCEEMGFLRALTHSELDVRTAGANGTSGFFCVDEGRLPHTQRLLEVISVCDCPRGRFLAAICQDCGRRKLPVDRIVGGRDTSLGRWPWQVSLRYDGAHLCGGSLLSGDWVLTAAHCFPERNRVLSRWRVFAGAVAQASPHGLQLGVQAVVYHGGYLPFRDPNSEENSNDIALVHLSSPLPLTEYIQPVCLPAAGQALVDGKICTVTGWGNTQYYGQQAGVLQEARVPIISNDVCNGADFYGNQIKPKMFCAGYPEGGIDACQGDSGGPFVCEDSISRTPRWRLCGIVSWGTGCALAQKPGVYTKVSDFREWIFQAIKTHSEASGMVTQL
T3 sequence (P09958 108-794): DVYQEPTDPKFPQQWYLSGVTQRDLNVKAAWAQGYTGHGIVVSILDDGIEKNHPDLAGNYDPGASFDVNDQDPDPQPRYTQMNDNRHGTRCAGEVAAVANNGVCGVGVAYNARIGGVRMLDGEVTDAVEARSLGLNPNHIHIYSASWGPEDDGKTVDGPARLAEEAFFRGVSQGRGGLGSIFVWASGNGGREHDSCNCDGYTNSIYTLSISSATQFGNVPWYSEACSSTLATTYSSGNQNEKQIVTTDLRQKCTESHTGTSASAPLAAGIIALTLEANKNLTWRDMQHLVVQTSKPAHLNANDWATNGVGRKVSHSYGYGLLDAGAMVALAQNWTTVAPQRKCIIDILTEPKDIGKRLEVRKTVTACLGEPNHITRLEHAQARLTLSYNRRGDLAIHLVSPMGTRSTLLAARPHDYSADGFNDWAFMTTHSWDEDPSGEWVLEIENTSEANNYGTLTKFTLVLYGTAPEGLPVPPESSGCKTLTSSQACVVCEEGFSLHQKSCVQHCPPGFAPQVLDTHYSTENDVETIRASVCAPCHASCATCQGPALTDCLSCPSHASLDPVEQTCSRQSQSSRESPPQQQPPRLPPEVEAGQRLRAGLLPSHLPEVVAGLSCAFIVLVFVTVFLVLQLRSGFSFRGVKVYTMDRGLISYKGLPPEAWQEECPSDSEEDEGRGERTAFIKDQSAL
human TMPRSS2, sequence (O15393 whole entry): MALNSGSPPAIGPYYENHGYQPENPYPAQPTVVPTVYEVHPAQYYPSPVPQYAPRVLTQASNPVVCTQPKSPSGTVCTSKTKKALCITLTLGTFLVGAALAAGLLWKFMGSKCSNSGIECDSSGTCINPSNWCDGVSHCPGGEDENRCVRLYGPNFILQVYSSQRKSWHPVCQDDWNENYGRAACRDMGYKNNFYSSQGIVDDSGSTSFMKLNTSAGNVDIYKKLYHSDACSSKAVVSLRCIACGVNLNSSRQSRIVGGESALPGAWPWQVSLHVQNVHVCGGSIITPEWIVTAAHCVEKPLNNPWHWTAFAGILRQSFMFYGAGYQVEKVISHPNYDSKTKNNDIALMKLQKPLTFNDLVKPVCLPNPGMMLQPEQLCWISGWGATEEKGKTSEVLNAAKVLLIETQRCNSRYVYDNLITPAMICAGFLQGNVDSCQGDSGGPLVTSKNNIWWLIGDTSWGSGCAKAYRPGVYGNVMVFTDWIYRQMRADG

With `N=C(N)NCCCCC(=O)N[C@@H](CCC(N)=O)C(=O)N[C@@H](Cc1ccccc1)C(=O)N[C@@H](CCCNC(=N)N)C(=O)c1nc2ccccc2s1` [Compound N-00130] as the molecule, how does the Ki [1] read?
Its Ki is 0.000221 µM and 0.000323 µM and 0.000606 µM.

What about the Ki [2] of the same molecule?
Its Ki is 0.154 nM and 0.0954 nM and 0.153 nM.

What about the Ki ([3]; single experiments N1-N3, Figure 1D, read-out: Individual Ki, Furin) of the same molecule?
Its Ki is greater than 10 µM.

What about the Ki [4, 11] of the same molecule?
Its Ki is greater than 10 µM.

And the Ki [5, 12]?
Its Ki is 0.0164 µM and 0.0379 µM and 0.0305 µM.

What about the Ki ([6]; single experiments N1-N3, Figure 1D, read-out: Individual Ki, Thrombin) of the same molecule?
Its Ki is 7.56 µM and > 10 µM and 7.14 µM.

Which Ki [4, 11] does the source give for `CS(=O)(=O)N[C@@H](CCC(N)=O)C(=O)N[C@@H](Cc1ccccc1)C(=O)N[C@@H](CCCNC(=N)N)C(=O)c1nc2ccccc2s1` [Compound N-00385] here?
The Ki was 9.7 µM and 9.06 µM and 3.83 µM and 2.57 µM.

And the Ki [5, 12]?
Its Ki is 0.0253 µM and 0.0169 µM and 0.0346 µM.

Which viability at 24 h, 3000 µM ([7]; Calu-3 cells, Log [inhibitor] -2.52, read-out: % of Viability, Average (n=2)) does the source give for `CS(=O)(=O)N[C@@H](CCC(N)=O)C(=O)N[C@@H](Cc1ccccc1)C(=O)N[C@@H](CCCNC(=N)N)C(=O)c1nc2ccccc2s1` [Compound N-385] here?
The viability at 24 h, 3000 µM was 52.5%.

What about the viability at 24 h, 1000 µM [7, 13] of the same molecule?
Its viability at 24 h, 1000 µM is 80.5%.

And the viability at 24 h, 1000 µM [7, 14]?
Its viability at 24 h, 1000 µM is 74%.

And the viability at 24 h, 300 µM [7, 13]?
The viability at 24 h, 300 µM was 92%.

And the viability at 24 h, 300 µM [7, 14]?
The viability at 24 h, 300 µM was 90%.

And the viability at 24 h, 100 µM [7, 13]?
The viability at 24 h, 100 µM was 91%.

And the viability at 24 h, 100 µM [7, 14]?
Its viability at 24 h, 100 µM is 94%.

And the viability at 24 h, 30 µM [7, 13]?
The viability at 24 h, 30 µM was 87%.

What about the viability at 24 h, 30 µM [7, 14] of the same molecule?
The viability at 24 h, 30 µM was 90%.

And the viability at 24 h, 10 µM [7, 13]?
The viability at 24 h, 10 µM was 101%.

And the viability at 24 h, 10 µM [7, 14]?
Its viability at 24 h, 10 µM is 103%.

What about the viability at 24 h, 3 µM [7, 13] of the same molecule?
Its viability at 24 h, 3 µM is 110%.

And the viability at 24 h, 3 µM [7, 14]?
The viability at 24 h, 3 µM was 110%.

What about the viability at 24 h, 0.3 µM [7, 13] of the same molecule?
Its viability at 24 h, 0.3 µM is 111%.

And the viability at 24 h, 0.3 µM [7, 14]?
Its viability at 24 h, 0.3 µM is 113%.

And the viability at 24 h, 0.03 µM [7, 13]?
The viability at 24 h, 0.03 µM was 110%.

What about the viability at 24 h, 0.03 µM [7, 14] of the same molecule?
Its viability at 24 h, 0.03 µM is 116%.

What about the viability at 24 h, 0.003 µM [7, 13] of the same molecule?
The viability at 24 h, 0.003 µM was 117%.

And the viability at 24 h, 0.003 µM [7, 14]?
The viability at 24 h, 0.003 µM was 119%.

And the CC50 at 24 h ([7]; Calu-3 cells, unit not given for CC50, read-out: CC50)?
Its CC50 at 24 h is 3470 µM.

And the “% of Viability” value ([8]; Log [inhibitor] -2.52)?
The value was 42% and 63%.

And the “% of Viability” value ([8]; Log [inhibitor] -4.00)?
The value was 88%.

What about the “% of Viability” value ([8]; Log [inhibitor] -4.52) of the same molecule?
Its value is 84%.

And the “% of Viability” value ([8]; Log [inhibitor] -5.00)?
The value was 99%.

And the “% of Viability” value ([8]; Log [inhibitor] -6.52)?
Its value is 109%.

What about the “% of Viability” value ([8]; Log [inhibitor] -7.52) of the same molecule?
Its value is 105%.

What about the “% of Viability” value ([8]; Log [inhibitor] -8.52) of the same molecule?
Its value is 115%.

With `CC(=O)NC(CCC(N)=O)C(=O)NC(Cc1ccccc1)C(=O)NC(CCCNC(=N)N)C(=O)c1nc2ccccc2s1` (centres unmarked) [Compound N-0386, Ac-QFR-kbt] as the molecule, how does the Nucleocapsid ([9]; Figure 2a, two replicates, DMSO control about 91-94) read?
Its Nucleocapsid is 0.1229 and 1.4208.

What about the dsRNA ([9]; Figure 2a, two replicates, DMSO control about 93-95) of the same molecule?
Its dsRNA is 0.2037 and 0.

And the EC50 ([9]; Severe acute respiratory syndrome coronavirus 2, Calu-3, read-out: SARS-CoV-2 VIDO Nucleocapsid EC50 ± SE)?
The EC50 was 0.0023 ± 0.0017 µM.

What about the inhibition at 0.1 µM ([9]; Severe acute respiratory syndrome coronavirus 2, Calu-3, read-out: inhibition of SARS-CoV-2 infection) of the same molecule?
The inhibition at 0.1 µM was greater than 99%.

What about the “Figure 2b dose-response, Mean” value ([9]; log [C] (nM) 0.20412) of the same molecule?
Its value is 63.391.

What about the “Figure 2b dose-response, Mean” value ([9]; log [C] (nM) 0.90309) of the same molecule?
Its value is 26.1724.

What about the “Figure 2b dose-response, Mean” value ([9]; log [C] (nM) 1.60206) of the same molecule?
The value was 7.727.

And the “Figure 2b dose-response, Mean” value ([9]; log [C] (nM) 2.30103)?
Its value is 6.997.

And the “Figure 2b dose-response, Mean” value ([9]; log [C] (nM) 3)?
The value was 2.833.

And the “Figure 2b dose-response, Mean” value ([9]; log [C] (nM) -0.49485)?
Its value is 81.0636.

What about the “Figure 2b dose-response, Mean” value ([9]; log [C] (nM) -1.19382) of the same molecule?
The value was 95.046.

And the CC50 at 24 h ([7]; Calu-3 lung epithelial cells, n = 2, read-out: CC50 in Calu-3 cells)?
Its CC50 at 24 h is 1880 µM.

And the Ki ([3]; mean ± s.d., max concentration 10 µM, read-out: Ki Furin)?
Its Ki is greater than 10 µM.

What about the Ki ([4]; mean ± s.d., max concentration 10 µM, read-out: Ki Cathepsin L) of the same molecule?
The Ki was 7.72 ± 0.142 µM.

And the Ki ([5]; mean ± s.d., max concentration 10 µM, read-out: Ki DESC1)?
The Ki was 0.0091 ± 0.0019 µM.

And the Ki ([6]; mean ± s.d., max concentration 10 µM, read-out: Ki Thrombin)?
Its Ki is greater than 10 µM.

And the “TMPRSS2 activity (%)” value ([10]; Figure 1B, single experiments N1-N3)?
The value was 22.2147% and 27.837% and 33.2674%.

What about the inhibition at 0.01 µM ([10]; Vero C1008, 10 nM compound, 24 h, vs untreated/vehicle TMPRSS2-expressing Vero E6 cells, read-out: inhibition of TMPRSS2 activity (reduction of substrate proteolysis)) of the same molecule?
Its inhibition at 0.01 µM is 73%.
